Experimental data: patent US20090010880A1 (priority 2007, published 2009)
In brackets after ≈: the same amount, converted by molar mass. Read-outs that look alike come from different tables or passages of the source.

Columns and labels:
DV (Dengue Virus) [1] = experiment: Yield Reduction Assay (YRA), Dengue virus in BHK cells; type: cell-based
[2] = Cytotoxicity (CC50) in BND cells; type: cell-based, Bottle Nose Dolphin; conditions: bottlenose dolphin, BND skin cells
[3] = system: BVDV (Bovine Viral Diarrhea Virus); experiment: microbe, parasite or virus in culture; type: cell-based; conditions: for inhibition of virus yield: 6-25 μg/ml, 24 and 48 hours post infection
[4] = Cytotoxicity (CC50) in BHK cells; type: cell-based; conditions: hamster
viral protein NS3 = experiment: Western blot analysis of viral NS3 protein; type: cell-based, Bovine Viral Diarrhea Virus; conditions: 25 μg/ml, 24 hours post infection, MOI of 10
Procedure: MDBK cells were infected with NADL strain of BVDV (MOI 10) in the presence or absence of 25 μg/ml of geneticin. Based on previous publications, the 18-24 h post-infection time point was chosen to determine viral proteins in infected cells. […] Thus, at 24 h post-infection, cell media was removed and cells were washed several times with PBS. Then, 2× concentrated electrophoresis sample buffer was added, cells were scraped from the dish and transferred to a microcentrifuge tube. To reduce viscosity, the samples were sonicated briefly or passed several times through a 26-gauge needle and boiled for 5 min. Fifteen micrograms of lysate sample were run on 10% SDS-PAGE and then transblotted. After blocking for 1 h in blocking buffer (5% dry milk in 0.05% Tween 20 in PBS), membranes were incubated with primary antibody (MAb 20.10.6) diluted 1:1,000 in blocking buffer for 60 min at room temperature and washed with 0.05% Tween 20 in PBS. After incubation with secondary antibody (anti-mouse IgG-HRP; Sigma) diluted 1:200 in blocking buffer for 60 min at room temperature, NS3 was detected with the Amersham ECL kit according to the manufacturer's instructions (Amersham Biosciences, Piscataway, N.J., USA).

[5] = system: BVDV (Bovine Viral Diarrhea Virus); experiment: Cytopathic Effect Assay (CPEA), BVDV in BND cells; type: cell-based; conditions: Bovine viral diarrhea virus isolates and strains
[6] = system: MDBK (Madin-Darby Bovine Kidney) cells; experiment: Cytotoxicity / cell viability in MDBK cells; type: cell-based
[7] = Cytotoxicity / cell viability in MDBK cells; type: cell-based, Bovine; conditions: bovine, MDBK cells
DV (Dengue Virus) [8] = experiment: Cytopathic Effect Assay (CPEA), Dengue virus in BHK cells; type: cell-based
YFV (Yellow Fever Virus) [9] = experiment: microbe, parasite or virus in culture; type: cell-based; conditions: read-out: YRA EC50
[10] = system: BVDV (Bovine Viral Diarrhea Virus); experiment: Cytopathic Effect Assay (CPEA) / cell viability, BVDV in MDBK cells; conditions: for EC50: Bovine viral diarrhea virus isolates and strains, MDBK
YFV (Yellow Fever Virus) [11] = experiment: microbe, parasite or virus in culture; type: cell-based; conditions: read-out: CPEA EC50
BVDV = experiment: Antiviral activity against BVDV (structure-function analysis); type: cell-based, Bovine Viral Diarrhea Virus

CN[C@@H]1[C@@H](O)[C@@H](O[C@@H]2[C@@H](O)[C@H](O[C@H]3O[C@H]([C@@H](C)O)[C@@H](O)[C@H](O)[C@H]3N)[C@@H](N)C[C@H]2N)OC[C@]1(C)O [Geneticin]
EC50 (DV (Dengue Virus) [1]): 5 µg/mL (≈ 10.1 µM) | CC50 [2]: > 2000 µg/mL | viral production [3]: below 10 % of control | EC50 ([3]; Bovine viral diarrhea virus isolates and strains, MDBK, BVDV, MDBK cells, read-out: YRA EC50): ~4 µg/mL (≈ 8.06 µM) | inhibition of virus yield ([3]; NADL strain): 10-100 fold | inhibition of virus yield ([3]; NY-1 strain): 10-100 fold | CC50 [4]: 160 µg/mL (≈ 322 µM) | synthesis of the viral protein NS3 (viral protein NS3): no effect | EC50 [5]: 50 µg/mL (≈ 101 µM) | MDBK cell viability (uninfected) ([6]; 31-250 μg/ml, 72 hours): no effect | concentration with cell toxicity (downward curve of cell viability) ([6]; high doses): above 400 μg/ml | CC50 [7]: 400 µg/mL (≈ 806 µM) | EC50 (DV (Dengue Virus) [8]): 4 µg/mL (≈ 8.06 µM) | EC50 (YFV (Yellow Fever Virus) [9]): 10 µg/mL (≈ 20.1 µM) | EC50 ([10]; read-out: CPEA EC50, BVDV, MDBK cells): ~4 µg/mL (≈ 8.06 µM) | EC50 ([10]; read-out: EC50 concentration for antiBVDV activity, BVDV): 4 µg/mL (≈ 8.06 µM) | EC50 (YFV (Yellow Fever Virus) [11]): 20 µg/mL (≈ 40.3 µM)

gentamicin
cell viability of cpBVDV-infected cells (cytoprotection against NADL) ([10]; NADL, MDBK cells, 12 μg/ml per drug): decreased the cell viability

NC[C@@H]1O[C@H](O[C@H]2[C@@H](O)[C@H](O[C@@H]3[C@@H](O)[C@H](N)C[C@H](N)[C@H]3O[C@H]3O[C@H](CO)[C@@H](O)[C@H](O)[C@H]3N)O[C@@H]2CO)[C@H](N)[C@@H](O)[C@@H]1O [paromomycin]
antiviral activity against BVDV (BVDV): no antiviral activity

CC(=O)O[C@H]1C[C@@]2(C)[C@@H](C[C@@H](O)[C@H]3[C@@]4(C)CC[C@@H](O)[C@@H](C)[C@@H]4CC[C@@]32C)/C1=C(\CCC=C(C)C)C(=O)O [fusidic acid]
antiviral activity against BVDV (BVDV): inactive
